Source: BindingDB's records for doi:10.3109/14756366.2013.777717 (Tokushima Bunri University, 2014)

Target: T1, Sphingomyelinase C (Bacillus cereus, UniProt P11889)
T1 sequence (P11889 whole entry): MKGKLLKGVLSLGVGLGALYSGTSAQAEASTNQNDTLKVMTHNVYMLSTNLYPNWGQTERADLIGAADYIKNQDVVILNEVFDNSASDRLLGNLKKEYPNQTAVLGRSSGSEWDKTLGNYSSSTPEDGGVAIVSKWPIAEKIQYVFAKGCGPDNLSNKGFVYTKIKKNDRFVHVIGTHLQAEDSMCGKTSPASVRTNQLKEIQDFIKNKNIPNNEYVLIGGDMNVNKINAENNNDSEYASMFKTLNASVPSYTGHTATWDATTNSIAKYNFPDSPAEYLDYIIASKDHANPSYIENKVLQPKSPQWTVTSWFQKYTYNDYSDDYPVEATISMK
Assay: Turbidometric Assay
Conditions: pH 7.5; 37 °C
Method: Briefly, Bc-SMase (50 ng/ml) was treated at 37 °C for 60 min with various compounds that were solubilized in dimethylacetoamide. The reaction mixture was incubated at 37 °C for 5 h with 1.0mM SM from bovine brain (Nacalai, Kyoto, Japan) that was solubilized in a solution containing 20mM Tris-HCl (pH 7.5), 1.0% sodium cholate, and 1mM MgCl2. The turbidity of the reaction mixture was analysed by absorption spectrometer at 620 nm.

SMILES	IC50	Ki
CCCCCCCCCCCCC/C=C/[C@@H](O)[C@H](COCc1cccc(-c2ccccn2)c1)NC(=O)CCCCC [SMY-632]	> 20 µM	
CCCCCCOC[C@H](COCc1cccc(-c2ccccn2)n1)OCCCCCC [TOM-2-18]	> 20 µM	
CCCCCC(=O)N[C@@H](COCc1cccc(-c2ccccn2)n1)[C@H](O)/C=C/COc1ccc(C(=O)c2ccccc2)cc1 [SMY-469a]	> 20 µM	
CCCCCCCCCCCCC/C=C/[C@@H](O)[C@H](COCc1cccc(-c2ccccn2)n1)NC(=O)OC(C)(C)C [SMY-579]	18.3 µM	
CCCCCCCCCCCCCCC[C@@H](O)[C@H](COCc1cccc(-c2ccccn2)n1)NC(=O)CCCCC [SMY-584]	> 20 µM	
CCCCCCCCCCCCC/C=C/[C@@H](O)[C@H](COCc1cccc(-c2ccccn2)n1)NC(=O)CCCCC [RY221B-a]	1.2 µM	5.2 µM
CCCCCCCCCCCCC/C=C/[C@@H](Oc1cccc(-c2ccccn2)n1)[C@H](CO)NC(=O)CCCCC [RY221B-b]	> 20 µM	
CCCCCC(=O)OC[C@H](COCc1cccc(-c2ccccn2)n1)OC(=O)CCCCC [TOM-2-7]	> 20 µM	
CCCCCCCCCCCCCCCCOC[C@H](COCc1cccc(-c2ccccn2)n1)OCCCCCCCCCCCCCCCC [TOM-2-37]	> 20 µM	
CCCCCCCCCCCCC/C=C/[C@@H](Oc1cccc(-c2ccccn2)n1)[C@H](COCc1cccc(-c2ccccn2)n1)NC(=O)CCCCC [SMY-610]	3.3 µM	
CCCCCC(=O)N[C@@H](COCc1cccc(-c2ccccn2)n1)[C@H](O)c1ccccc1 [SMY-540]	0.8 µM	1.3 µM
CCCCCCCCCCCCC/C=C/[C@@H](O)[C@@H](N)COCc1cccc(-c2ccccn2)n1 [SMY-471]	0.9 µM	2.8 µM
